Laboratory results from patent US4101676A, “Diphenylpropylamines to treat depression” (Beecham Group Limited, priority 1973, dated 1978).
Structures can show the parent of a compound that is named as a salt.

Legend:
reserpine hypothermia [1] = test: Prevention of Reserpine Hypothermia; format: in vivo, mice (Carworth Europe male); settings: for Δ^6 / Δ^24: mice, oral; for Δ^6: cumulative temperature difference from controls at 6 hours; for Δ^24: cumulative temperature difference from controls at 24 hours; for Reserpine Prevention Δ^6: 6 hours; for Reserpine Prevention Δ^24: 24 hours; for effects on the Reserpine Prevention tests: comparison of the two isomers
Procedure: The method of Spencer [Antidepressant Drugs, 194 (1967) ] was used. Groups of ten mice are given oral doses of test compound 24 18 and 2 hours before an intravenous injection of reserpine base (Serpasil). Oral temperatures of the mice are taken immediately before administration of reserpine and then 2 4 6 and 24 hours afterwards.
Mean temperatures of groups given test compounds are compared with reserpinised controls using a Students t test. Compounds causing a significant difference at the level P < 0.001 are considered active. In order to quantify anti-reserpine activity cumulative temperature differences from controls at 6 hours and 24 hours (Δ^6 and Δ^24 ) are calculated.
(§1) Carworth Europe male mice are used for all experiments apart from that using the cat nictitating membrane and test compounds are administered orally as solutions in distilled water. Compounds for intravenous administration are dissolved in 0.9% saline apart from Reserpine which is dissolved in dilute acetic acid buffered to pH5. Unless otherwise stated, the dosing interval is one hour.
(§2) The Reserpine Prevention, Reserpine Reversal and Noradrenaline Uptake Inhibition tests were carried out as described in the previous Example. The Mydriasis tests was also as described in the previous Example but using 20 mg/kg doses of each compound after which a curve was plotted of percentage increase in pupil diameter vertus time and the percentage increase was integrated with respect to time for 0-120 minutes after dosing and the result expressed as a percentage.

[2] = system: pupil diameter (mydriasis, anticholinergic side effect); test: Mydriatic Response in Mice (dose causing 200% increase in pupil size); format: in vivo
Procedure: Groups of five mice are pre-selected for uniformity of pupil diameter using a binocular microscope with a calibrated eye-piece. Pupil sizes are measured at various intervals after an intraperitoneal injection of test compound and at the peak time a curve plotted of percentage increase in pupil diameter versus log dose. […] Carworth Europe male mice are used for all experiments apart from that using the cat nictitating membrane and test compounds are administered orally as solutions in distilled water. […] Unless otherwise stated, the dosing interval is one hour.

Noradrenaline uptake = test: Inhibition of Noradrenaline Uptake in vitro (brain synaptosomes); format: biochemical, male Wistar rats; settings: for Inhibition of Noradrenaline Uptake In Vitro %: 10^-6 molar (Pharmacology 2)
Procedure: (§3) Synaptosomes are isolated from the brains of male Wistar rats (150-170g.) and monamine uptake determined by the method of Snyder and Coyle (1968) [Synder S. H. and Coyle J. T. J. Pharmac. exp. Ther. 165 (1968) 78-86]. Uptake was determined over a ten minute period instead of the normal five minutes.
as §2

[3] = system: 5-Hydroxytryptamine uptake; test: Inhibition of 5-Hydroxytryptamine Uptake in vitro (brain synaptosomes); format: biochemical, male Wistar rats
Procedure: as §3

reserpine hypothermia [4] = test: Reversal of Reserpine Hypothermia; format: in vivo, mice (Carworth Europe male); settings: for Δ^6 / Δ^24: mice, subcutaneous; for Δ^6 / Reserpine Reversal Δ^6: 6 hours; for Δ^24 / Reserpine Reversal Δ^24: 24 hours
Procedure: Seventeen hours later the oral temperatures of the mice are taken and various doses of test compound or vehicle given subcutaneously. Temperatures are taken 1, 2, 4 6 and 24 hours later and the results are analysed as in Test 1 (The subcutaneous route is used for convenience as the very depressed reserpinised mice cannot be reliably dosed orally).
as §1, §2

[5] = system: pupil diameter (mydriasis); test: Mydriasis integral 0-120 minutes; format: in vivo, mice; settings: for Mydriasis Integral Percent 120 Mins.: mice, 20 mg/kg, 0-120 minutes
Procedure: Groups of five mice are pre-selected for uniformity of pupil diameter using a binocular microscope with a calibrated eye-piece. Pupil sizes are measured at various intervals after an intraperitoneal injection of test compound and at the peak time a curve plotted of percentage increase in pupil diameter versus log dose. From this the dose causing a 200% increase in pupil size (this lies on the linear part of the curve) is found
as §1, §2

[6] = molecular target: T1, Guinea Pig Ileum (Cavia porcellus); test: pA2 Determination on Guinea Pig Ileum (antagonism to Acetylcholine); settings: in vitro, read-out: pA2 on Iillium (converted)
T1 construct: from tissue; host or cells: guinea pig ileum
T1 sequence (H0W1Z3 1-590): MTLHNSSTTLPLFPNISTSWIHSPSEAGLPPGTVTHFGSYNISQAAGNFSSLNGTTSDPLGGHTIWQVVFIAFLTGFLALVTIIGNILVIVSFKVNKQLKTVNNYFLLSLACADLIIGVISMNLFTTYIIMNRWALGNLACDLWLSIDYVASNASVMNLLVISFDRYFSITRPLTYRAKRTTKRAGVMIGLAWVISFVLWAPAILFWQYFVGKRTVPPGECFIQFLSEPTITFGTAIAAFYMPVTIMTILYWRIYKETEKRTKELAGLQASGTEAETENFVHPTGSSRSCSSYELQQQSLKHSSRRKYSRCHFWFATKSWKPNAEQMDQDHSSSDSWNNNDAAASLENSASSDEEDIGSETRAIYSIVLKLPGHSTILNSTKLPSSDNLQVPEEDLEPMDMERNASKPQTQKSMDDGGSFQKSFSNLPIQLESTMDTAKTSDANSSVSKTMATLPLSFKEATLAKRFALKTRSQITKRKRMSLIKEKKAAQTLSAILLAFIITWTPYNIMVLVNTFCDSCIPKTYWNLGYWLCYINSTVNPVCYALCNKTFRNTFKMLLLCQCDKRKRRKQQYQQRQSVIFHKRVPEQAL
From the text: It is thus a means of expressing anticholinergic activity which is independent of the dose of Acetylcholine and the piece of tissue used. The method used is similar to that of Schild, [Brit. J. Pharmacol. 14 (1959) 48] the tissue being bathed in Tyrode solution and a dose response curved for Acetylcholine being obtained.

[7] = Pharmacology 2, dose 10 (unit not given)
[8] = Pharmacology 2, dose 20 (unit not given)
[9] = Pharmacology 2, dose 40 (unit not given)
[10] = mice, intraperitoneal, at peak time

## CCN(CC)CC(O)C(c1ccccc1)c1ccccc1 (stereo not drawn) [C2H5 C2H5 H H H HCl]
Reserpine hypothermia [1]; 30 mg/kg
  Δ^6: 11 °C
  Δ^24: 11 °C

## CN(C)CCC=C1c2ccccc2CCc2ccccc21 [Amitriptyline hydrochloride, reference compound]
Reserpine hypothermia [1]; 30 mg/kg
  Δ^6: 12 °C
  Δ^24: 22 °C
[2]; mouse, in vivo, ip
  Mydriasis-Dose to cause 200% effect: 6 mg/kg

## CN(C)CC(O)C(c1ccccc1)c1ccc(F)cc1 (stereo not drawn) [CH3 CH3 H H F, 3-Dimethylamino-1-p-fluorophenyl-1-phenyl-propan-2-ol]
Noradrenaline uptake; 10^-5 molar
  Inhibition of Monoamine Uptake NA (%): 80%
Noradrenaline uptake; 10^-6 molar (Table 4)
  Inhibition of Monoamine Uptake NA (%): 59%
[3]; 10^-5 molar
  Inhibition of Monoamine Uptake 5HT (%): 85%
[3]; 10^-6 molar
  Inhibition of Monoamine Uptake 5HT (%): 60%
Reserpine hypothermia [1]; 20 mg/kg
  Δ^6: 11 °C
  Δ^24: 15 °C
Reserpine hypothermia [4]; 25 mg/kg
  Δ^6: 17 °C
  Δ^24: 23 °C

## CN(Cc1ccccc1)CC(C)(O)C(c1ccccc1)c1ccccc1 (stereo not drawn) [CH3 H N(CH3)CH2C6H5, 3-(N-Benzyl N-methylamino)-2-methyl-1,1-diphenyl-propan-2-ol]
Reserpine hypothermia [1]; 100 mg/kg
  Δ^6: 6 °C
  Δ^24: 8 °C

## Cc1ccccc1C(c1ccccc1)C(O)CN(C)C (stereo not drawn) [CH3 CH3 CH3 H H HCl, 3-Dimethylamino-1-phenyl-1-o-tolyl-propan-2-ol]
Reserpine hypothermia [1]; 30 mg/kg
  Δ^6: 11 °C
  Δ^24: 14 °C

## OC(CN1CCCCC1)C(c1ccccc1)c1ccccc1 (stereo not drawn) [H H piperidine, 3-N-Piperidino-1 1-diphenyl-propan-2-ol]
Reserpine hypothermia [1]; 100 mg/kg
  Δ^6: 9 °C
  Δ^24: 10 °C

## CN(Cc1ccccc1)CC(O)C(c1ccccc1)c1ccccc1 (stereo not drawn) [CH2C6H5 CH3 H H H HCl, 3-(N-Benzyl-N-methylamino)-1,1-diphenyl-propan-2-ol]
Reserpine hypothermia [1]; 30 mg/kg
  Δ^6: 10 °C
  Δ^24: 11 °C

## CN(C)CC(O)C(c1ccccc1)c1ccccc1 (racemic) [Compound B, (+)-3-Dimethylamino-1,1-diphenyl-propan-2-ol]
Noradrenaline uptake
  Inhibition of Noradrenaline Uptake In Vitro %: 40%
Reserpine hypothermia [1]; [7]
  Reserpine Prevention Δ^6: 12 °C
  Reserpine Prevention Δ^24: 15 °C
Reserpine hypothermia [1]; [8]
  Reserpine Prevention Δ^6: 16 °C
  Reserpine Prevention Δ^24: 23 °C
Reserpine hypothermia [1]; [9]
  Reserpine Prevention Δ^6: 16 °C
  Reserpine Prevention Δ^24: 25 °C
Reserpine hypothermia [1]
  effects on the Reserpine Prevention tests: roughly equal effects
Reserpine hypothermia [4]; [7]
  Reserpine Reversal Δ^6: 16 °C
  Reserpine Reversal Δ^24: 27 °C
Reserpine hypothermia [4]; [8]
  Reserpine Reversal Δ^6: 15 °C
  Reserpine Reversal Δ^24: 19 °C
Reserpine hypothermia [4]; [9]
  Reserpine Reversal Δ^6: 13 °C
  Reserpine Reversal Δ^24: 19 °C
Reserpine hypothermia [4]; low doses, (+)-isomer versus (-)-isomer
  activity on the Reserpine Reversal Test: more active than the (-)-isomer on the Reserpine Reversal Test at low doses
[5]
  Mydriasis Integral Percent 120 Mins.: 12600%

## CN(C)CC(O)C(c1ccccc1)c1ccc(Cl)cc1 (stereo not drawn) [CH3 CH3 H H Cl, 3-Dimethylamino-1-p-chlorophenyl-1-phenyl-propan-2-ol]
[6]
  Kb: 10 µM
Reserpine hypothermia [1]; 30 mg/kg
  Δ^6: 13 °C
  Δ^24: 22 °C
Reserpine hypothermia [4]; 30 mg/kg
  Δ^6: 9 °C
  Δ^24: 11 °C
[2]; [10]
  Mydriasis-Dose to cause 200% effect: 40 mg/kg

## CNCC(O)C(c1ccccc1)c1ccccc1 (stereo not drawn) [CH3 H H H H HCl, 3-Methylamino-1,1-diphenyl-propan-2-ol]
Noradrenaline uptake; 10^-5 molar
  Inhibition of Monoamine Uptake NA (%): 85%
Noradrenaline uptake; 10^-6 molar (Table 4)
  Inhibition of Monoamine Uptake NA (%): 65%
[6]
  Kb: 10 µM
Reserpine hypothermia [1]; 20 mg/kg
  Δ^6: > 10 °C
  Δ^24: > 10 °C
[2]; [10]
  Mydriasis-Dose to cause 200% effect: 114 mg/kg

## CN(C)CC(O)C(c1ccccc1)c1ccccc1 (racemic) [Compound A, (±) -3-Dimethylamino-1,1-diphenylpropan-2-ol]
Noradrenaline uptake
  Inhibition of Noradrenaline Uptake In Vitro %: 63%
Reserpine hypothermia [1]; [7]
  Reserpine Prevention Δ^6: 12 °C
  Reserpine Prevention Δ^24: 16 °C
Reserpine hypothermia [1]; [8]
  Reserpine Prevention Δ^6: 15 °C
  Reserpine Prevention Δ^24: 19 °C
Reserpine hypothermia [1]; [9]
  Reserpine Prevention Δ^6: 15 °C
  Reserpine Prevention Δ^24: 22 °C
Reserpine hypothermia [4]; [7]
  Reserpine Reversal Δ^6: 16 °C
  Reserpine Reversal Δ^24: 20 °C
Reserpine hypothermia [4]; [8]
  Reserpine Reversal Δ^6: 14 °C
  Reserpine Reversal Δ^24: 17 °C
Reserpine hypothermia [4]; [9]
  Reserpine Reversal Δ^6: 15 °C
  Reserpine Reversal Δ^24: 20 °C
[5]
  Mydriasis Integral Percent 120 Mins.: 7400%

## CN(C)CC(O)C(c1ccccc1)c1cccc(Cl)c1 (stereo not drawn) [CH3 CH3 H Cl H HCl, 3-Dimethylamino-1-m-chlorophenyl-1-phenyl-propan-2-ol]
Reserpine hypothermia [1]; 20 mg/kg
  Δ^6: 10 °C
  Δ^24: 17 °C

## CNCC(O)C(c1ccccc1)c1ccc(C)cc1 (stereo not drawn) [CH3 H H H CH3 HCl, 3-N-methylamino-1-phenyl-1-p-tolyl-propan-2-ol]
Reserpine hypothermia [1]; 100 mg/kg
  Δ^6: 6 °C
  Δ^24: 6 °C

## CNCC(C)(O)C(c1ccccc1)c1ccccc1 (stereo not drawn) [CH3 H NHCH3, 3-(N-methylamino)-2-methyl-1,1-diphenyl-propan-2-ol]
Reserpine hypothermia [1]; 30 mg/kg
  Δ^6: 7 °C
  Δ^24: 13 °C

## CN(C)CC(O)C(c1ccccc1)c1ccccc1 (stereo not drawn) [CH3 CH3 H H H HBr, 3-Dimethylamino-1,1-diphenyl-propan-2-ol]
[6]
  Kb: 10 µM
Reserpine hypothermia [1]; 20 mg/kg
  Δ^6: 13 °C
  Δ^24: 19 °C
Reserpine hypothermia [4]; 20 mg/kg
  Δ^6: 14 °C
  Δ^24: 22 °C
[2]; [10]
  Mydriasis-Dose to cause 200% effect: 41 mg/kg

## CN(C)CC(O)C(c1ccccc1)c1ccccc1 (single isomer, unassigned; (-)) [Compound C, (-)-3-Dimethylamino-1,1-diphenylpropan-2-ol]
Noradrenaline uptake
  Inhibition of Noradrenaline Uptake In Vitro %: 64%
Reserpine hypothermia [1]; [7]
  Reserpine Prevention Δ^6: 11 °C
  Reserpine Prevention Δ^24: 17 °C
Reserpine hypothermia [1]; [8]
  Reserpine Prevention Δ^6: 13 °C
  Reserpine Prevention Δ^24: 19 °C
Reserpine hypothermia [1]; [9]
  Reserpine Prevention Δ^6: 12 °C
  Reserpine Prevention Δ^24: 19 °C
Reserpine hypothermia [1]
  effects on the Reserpine Prevention tests: roughly equal effects
Reserpine hypothermia [4]; [7]
  Reserpine Reversal Δ^6: 6 °C
  Reserpine Reversal Δ^24: 3 °C
Reserpine hypothermia [4]; [8]
  Reserpine Reversal Δ^6: 16 °C
  Reserpine Reversal Δ^24: 19 °C
Reserpine hypothermia [4]; [9]
  Reserpine Reversal Δ^6: 13 °C
  Reserpine Reversal Δ^24: 20 °C
[5]; (-)-isomer versus (+)-isomer
  peripheral anticholinergic effects: fewer peripheral anticholinergic effects than the (+)-isomer
[5]
  Mydriasis Integral Percent 120 Mins.: 6700%

## CC(=O)OC(CN(C)C)C(c1ccccc1)c1ccccc1 (stereo not drawn) [H COCH3 N(CH3)2, 2-Acetoxy-3-dimethylamino-1,1-diphenyl-propane]
Reserpine hypothermia [1]; 20 mg/kg
  Δ^6: > 10 °C
  Δ^24: > 10 °C

## OC(CN1CCOCC1)C(c1ccccc1)c1ccccc1 (stereo not drawn) [H H morpholino]
Reserpine hypothermia [1]; 100 mg/kg
  Δ^6: 10 °C
  Δ^24: 10 °C

## CNCC(O)C(c1ccccc1)c1ccc(F)cc1 (stereo not drawn) [H CH3 H H F, 3-Methylamino-1-p-fluorophenyl-1-phenyl-propan-2-ol]
[6]
  Kb: 100 µM
Reserpine hypothermia [1]; 30 mg/kg
  Δ^6: 12 °C
  Δ^24: 21 °C
[2]; [10]
  Mydriasis-Dose to cause 200% effect: 92 mg/kg

## CN(Cc1ccccc1)CC(O)C(c1ccccc1)c1ccc(F)cc1 (stereo not drawn) [CH2C6H5 CH3 H H F, 3-(N-Benzyl,N-methylamino)-1-p-fluorophenyl-1-phenylpropan-2-ol]
Reserpine hypothermia [1]; 30 mg/kg
  Δ^6: 9 °C
  Δ^24: 11 °C

## CN(C)CCCN1c2ccccc2CCc2ccccc21 [Imipramine HCl, reference compound]
Noradrenaline uptake; 10^-5 molar
  Inhibition of Monoamine Uptake NA (%): 85%
Noradrenaline uptake; 10^-6 molar (Table 4)
  Inhibition of Monoamine Uptake NA (%): 56%
[6]
  Kb: 0.001 µM
[3]; 10^-5 molar
  Inhibition of Monoamine Uptake 5HT (%): 90%
[3]; 10^-6 molar
  Inhibition of Monoamine Uptake 5HT (%): 55%
Reserpine hypothermia [1]; 30 mg/kg
  Δ^6: 10 °C
  Δ^24: 17 °C
Reserpine hypothermia [4]; 10 mg/kg
  Δ^6: 18 °C
  Δ^24: 18 °C
[2]; [10]
  Mydriasis-Dose to cause 200% effect: 18 mg/kg
